Broadly, the Ki is a measure of affinity in units of concentration, obtained from inhibition or displacement.

Where “and” joins values, the source holds several entries; their conditions need not be identical. Equal entries are not always repeated. Where a SMILES comes first, the peptide text is derived from it. [ ]: non-standard residue; d: D form. GABA = NCCCC(=O)O

Chain of Angiotensin-converting enzyme 2 (Q58DD0 whole entry): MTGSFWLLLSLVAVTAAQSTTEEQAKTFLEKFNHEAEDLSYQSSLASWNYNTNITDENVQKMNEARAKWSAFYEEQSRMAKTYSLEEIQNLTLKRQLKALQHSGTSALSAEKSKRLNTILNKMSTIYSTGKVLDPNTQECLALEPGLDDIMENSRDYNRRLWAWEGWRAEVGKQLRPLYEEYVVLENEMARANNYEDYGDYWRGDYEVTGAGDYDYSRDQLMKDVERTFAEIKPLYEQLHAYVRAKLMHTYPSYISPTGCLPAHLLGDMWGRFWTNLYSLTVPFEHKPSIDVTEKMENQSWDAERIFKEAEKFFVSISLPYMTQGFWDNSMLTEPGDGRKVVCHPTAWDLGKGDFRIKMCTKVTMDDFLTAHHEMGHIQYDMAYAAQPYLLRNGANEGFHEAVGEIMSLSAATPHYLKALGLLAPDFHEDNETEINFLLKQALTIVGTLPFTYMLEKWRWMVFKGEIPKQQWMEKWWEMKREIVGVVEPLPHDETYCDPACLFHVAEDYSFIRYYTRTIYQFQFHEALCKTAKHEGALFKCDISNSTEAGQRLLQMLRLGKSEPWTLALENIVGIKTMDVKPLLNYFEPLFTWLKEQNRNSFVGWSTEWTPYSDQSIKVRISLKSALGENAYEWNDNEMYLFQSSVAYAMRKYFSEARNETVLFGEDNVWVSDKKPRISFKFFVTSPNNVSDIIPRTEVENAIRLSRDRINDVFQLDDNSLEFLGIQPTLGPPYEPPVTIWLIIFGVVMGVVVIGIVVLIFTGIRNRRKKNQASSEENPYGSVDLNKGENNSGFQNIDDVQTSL

The assay addresses Angiotensin-converting enzyme 2 (Bos taurus, UniProt Q58DD0).
Regarding `Cc1cc(Cn2cnc3c2C[C@@H](C(=O)O)N(C(=O)C(c2ccccc2)c2ccccc2)C3)ccc1N`, the Ki was > 10000 nM.

On to `CC[C@H](C)[C@H](NC(=O)[C@H](Cc1ccc(O)cc1)NC(=O)[C@@H](N)C(C)C)C(=O)N[C@@H](Cc1cnc[nH]1)C(=O)N1CCC[C@H]1C(=O)N[C@@H](Cc1ccccc1)C(=O)O`, for which the inhibition constant Ki is 5.54 nM and 3.58 nM.

`CCC(C)[C@H](NC(=O)[C@@H]1CCCN1C(=O)[C@H](Cc1cnc[nH]1)NC(=O)[C@@H](NC(=O)[C@H](Cc1ccc(O)cc1)NC(=O)[C@@H](NC(=O)[C@H](CCCN=C(N)N)NC(=O)CNC)C(C)C)[C@@H](C)CC)C(=O)O` (stereo partly specified) [Ang II Ile8, Sar1] came in with an inhibition constant (Ki) of 1000 nM.

`CC[C@H](C)[C@H](NC(=O)[C@H](Cc1ccc(O)cc1)NC(=O)[C@@H](NC(=O)[C@H](CCCN=C(N)N)NC(=O)CNC)C(C)C)C(=O)N[C@@H](Cc1cnc[nH]1)C(=O)N1CCC[C@H]1C(=O)N[C@H](C(=O)O)C(C)O` (stereo partly specified) [Ang II Thr8, Sar1]: affinity was put at a Ki of 1000 nM.

`CC[C@H](C)[C@H](NC(=O)[C@H](Cc1ccc(O)cc1)NC(=O)[C@H](N)C(C)C)C(=O)N[C@@H](Cc1cnc[nH]1)C(=O)N1CCC[C@H]1C(=O)N[C@@H](Cc1ccccc1)C(=O)O` [Ang IV D-Val1] gave an inhibitory constant (Ki) of 1000 nM.

For the molecule `CC[C@H](C)[C@H](NC(=O)[C@H](Cc1ccc(O)cc1)NC(=O)CCCN)C(=O)N[C@@H](Cc1cnc[nH]1)C(=O)N1CCC[C@H]1C(=O)N[C@@H](Cc1ccccc1)C(=O)O` [Ang IV Nor1] (H-[GABA]YIHPF-OH), the Ki was 8.49 nM and 3.25 nM.

The molecule `CC[C@H](C)[C@H](NC(=O)[C@H](Cc1ccc(O)cc1)NC(=O)[C@@H](NC(=O)[C@H](CCCNC(=N)N)NC(=O)[C@@H](N)CC(=O)O)C(C)C)C(=O)N[C@@H](Cc1cnc[nH]1)C(=O)N[C@H](C)C(=O)O` [Ang(1-7) D-Ala7] (H-DRVYIH[dA]-OH) returned a Ki of 1000 nM.

For the molecule `CC[C@H](C)[C@H](NC(=O)[C@H](Cc1ccc(O)cc1)NC(=O)[C@@H](NC(=O)[C@H](CCCNC(=N)N)NC(=O)[C@@H](N)CC(=O)O)C(C)C)C(=O)N[C@@H](Cc1c[nH]cn1)C(=O)N1CCC[C@H]1C(=O)O` [Ang(1-7)], the affinity corresponds to a Ki of 1000 nM.

In the case of `CC[C@H](C)[C@H](NC(=O)[C@H](Cc1ccc(O)cc1)NC(=O)[C@@H](NC(=O)[C@@H](N)CCCN=C(N)N)C(C)C)C(=O)N[C@@H](Cc1cnc[nH]1)C(=O)N1CCC[C@H]1C(=O)O` [Ang(2-7)], the affinity, expressed as Ki, was 33.5 nM.

Molecule `CC(C)[C@H](N)C(=O)N[C@@H](Cc1ccc(O)cc1)C(=O)O` [Ang(3-4)] (H-Val-Tyr-OH) yielded a Ki of 1000 nM.

Consider `CC[C@H](C)[C@H](NC(=O)[C@H](Cc1ccc(O)cc1)NC(=O)[C@@H](N)C(C)C)C(=O)O` [Ang(3-5)] (H-Val-Tyr-Ile-OH), for which the affinity, expressed as Ki, was 9.91 nM.

`CC[C@H](C)[C@H](NC(=O)[C@H](Cc1ccc(O)cc1)NC(=O)[C@@H](N)C(C)C)C(=O)N[C@@H](Cc1cnc[nH]1)C(=O)O` [Ang(3-6)] (H-VYIH-OH): the affinity corresponds to a Ki of 14.4 nM.

Take `CC[C@H](C)[C@H](NC(=O)[C@H](Cc1ccc(O)cc1)NC(=O)[C@@H](N)C(C)C)C(=O)N[C@@H](Cc1cnc[nH]1)C(=O)N1CCC[C@H]1C(=O)O` [Ang(3-7)] (H-VYIHP-OH): the inhibition constant (Ki) was 10.5 nM.

Regarding `CC[C@H](C)[C@H](NC(=O)[C@H](Cc1ccc(O)cc1)NC(=O)[C@@H](N)C(C)C)C(=O)N[C@@H](Cc1c[nH]cn1)C(=O)N1CCC[C@H]1C(=O)N[C@@H](Cc1ccccc1)C(=O)N[C@@H](Cc1c[nH]cn1)C(=O)O` [Ang(3-9)] (H-VYIHPFH-OH), the inhibitory constant (Ki) was 7.17 nM.

For the molecule `CC[C@H](C)[C@H](NC(=O)[C@H](Cc1ccc(O)cc1)NC(=O)[C@@H](N)C(C)C)C(=O)N[C@@H](Cc1c[nH]cn1)C(=O)N1CCC[C@H]1C(=O)N[C@@H](Cc1ccccc1)C(=O)N[C@@H](Cc1c[nH]cn1)C(=O)N[C@@H](CC(C)C)C(=O)O` [Ang(3-10)] (H-VYIHPFHL-OH), the Ki was 18.8 nM.

In the case of `CC[C@H](C)[C@H](NC(=O)[C@H](Cc1ccc(O)cc1)NC(=O)[C@@H](N)C(C)C)C(=O)N[C@@H](Cc1cnc[nH]1)C(=O)N1CCC[C@H]1C(=O)N[C@@H](Cc1ccccc1)C(=O)N[C@@H](Cc1cnc[nH]1)C(=O)N[C@@H](CC(C)C)C(=O)N[C@H](C(=O)O)C(C)C` [Ang(3-11)] (H-VYIHPFHLV-OH), the Ki came out at 117 nM.

Turning to `CC[C@H](C)[C@H](NC(=O)[C@@H](N)Cc1ccc(O)cc1)C(=O)N[C@@H](Cc1cnc[nH]1)C(=O)N1CCC[C@H]1C(=O)N[C@@H](Cc1ccccc1)C(=O)O` [Ang(4-8)] (H-YIHPF-OH), the inhibition constant Ki came to 1000 nM.

With `CC[C@H](C)[C@H](NC(=O)[C@H](Cc1ccc(O)cc1)NC(=O)[C@@H](NC(=O)[C@@H](N)CCCN=C(N)N)C(C)C)C(=O)N[C@@H](Cc1c[nH]cn1)C(=O)N1CCC[C@H]1C(=O)N[C@@H](Cc1ccccc1)C(=O)O` [CAS_12687-51-3], the Ki was 63.2 nM and 36.8 nM.

Consider `CCCCc1nc(Cl)c(CO)n1Cc1ccc(-c2ccccc2-c2nn[nH]n2)cc1` [NSC_3961], for which the Ki was > 10000 nM.

On to `CC[C@H](C)[C@H](NC(=O)[C@H](Cc1ccc(O)cc1)NC(=O)[C@@H](NC(=O)[C@H](CCCNC(=N)N)NC(=O)[C@@H](N)CC(=O)O)C(C)C)C(=O)N[C@@H](Cc1cnc[nH]1)C(=O)N1CCC[C@H]1C(=O)N[C@@H](Cc1ccccc1)C(=O)O` [NSC_439662], for which the Ki is 411 nM and 581 nM.

Consider `CCCC[C@H](N)C(=O)N[C@H](Cc1ccccc1)C(=O)NCCCCCC(N)=O` [NleYI-6-hexamide], for which the inhibitory constant (Ki) came to 13.7 nM.

(Values after BindingDB's records for PubMed 10565848 (Washington State University, 1999).)
